Laboratory results from patent US20130032547A1, “STABILIZATION AND DISINFECTION OF WASTES USING HIGH ENERGY E-BEAM AND CHEMICAL OXIDANTS” (priority 2011, published 2013).

How the values were obtained:
[1] = tested on: estrogenic activity of 17-β-estradiol (E2); human estrogen receptor; details: it has been shown; cited from earlier work
[2] = tested on: Escherichia coli (ATCC #25922); format: cell-based
[3] = tested on: male-specific coliphages (MS-2); format: cell-based, coliphage MS-2
[4] = tested on: aerobic spores (Bacillus subtilis); format: cell-based
spiked organisms = experiment: Preliminary studies using PBS: ferrate with E-beam on spiked organisms; format: cell-based; details: ferrate 2 ppm or 4 ppm in combination with E-beam (6 kGy, 8 kGy and 12 kGy)
Salmonella Typhimurium = format: cell-based
[5] = tested on: estrogenic activity of 17-β-estradiol (E2); human estrogen receptor; experiment: Estrogenic activity, YES assay (recombinant yeast); format: cell-based, Saccharomyces cereviciae; details: E2 spiked
[6] = tested on: estrogenic activity of 17-β-estradiol (E2); human estrogen receptor (ER) α; experiment: Estrogenic activity, ZR-75 breast cancer cell ERE-Luc reporter assay; format: cell-based; details: E2 spiked
Poliovirus Type 1 = format: cell-based, Poliovirus-1
[7] = Table 28, 50 ppm + E-Beam (8 kGy)
[8] = Table 28, 100 ppm + E-Beam (8 kGy)
[9] = Table 28, 200 ppm + E-Beam (8 kGy)
[10] = Table 29, 50 ppm + E-Beam (8 kGy)
[11] = Table 29, 100 ppm + E-Beam (8 kGy)
[12] = Table 29, 200 ppm + E-Beam (8 kGy)

Structure (SMILES): CC/C(=C(\c1ccc(O)cc1)c1ccc(OCCN(C)C)cc1)c1ccccc1 [hydroxytamoxifen]
- response in the YES assay (in words) [1]: partial agonistic (estrogenic) response

Structure (SMILES): [O]=[Fe](=[O])([O-])[O-] [Ferrate, ferrate]
- surviving bacterial colonies (detection limit) [2]: < 10 CFU/ml
- inactivation (in words) [3]: Complete inactivation
- log reduction of spore formers [4]: two to three
- reduction of spore formers (in words) [4]: slight reduction
- inactivation (in words) (spiked organisms): inactivated
- log reduction (approximated) (Salmonella Typhimurium): around three
- surviving bacterial colonies (detection limit) (Salmonella Typhimurium): < 10 CFU/ml
- % Reduction in Estrogenic Activity, Solid Portion (n = 3) [5, 7]: 40%
- % Reduction in Estrogenic Activity, Solid Portion (n = 3) ([5]; Table 28, 50 ppm Ferrate): 40%
- % Reduction in Estrogenic Activity, Solid Portion (n = 3) [5, 8]: 43%
- % Reduction in Estrogenic Activity, Solid Portion (n = 3) ([5]; Table 28, 100 ppm Ferrate): 27%
- % Reduction in Estrogenic Activity, Solid Portion (n = 3) [5, 9]: 51%
- % Reduction in Estrogenic Activity, Solid Portion (n = 3) ([5]; Table 28, 200 ppm Ferrate): 59%
- % Reduction in Estrogenic Activity, Solid Portion (n = 3) [5, 10]: 29%
- % Reduction in Estrogenic Activity, Solid Portion (n = 3) ([5]; Table 29, 50 ppm Ferrate): 30%
- % Reduction in Estrogenic Activity, Solid Portion (n = 3) [5, 11]: 20%
- % Reduction in Estrogenic Activity, Solid Portion (n = 3) ([5]; Table 29, 100 ppm Ferrate): 31%
- % Reduction in Estrogenic Activity, Solid Portion (n = 3) [5, 12]: 30%
- % Reduction in Estrogenic Activity, Solid Portion (n = 3) ([5]; Table 29, 200 ppm Ferrate): 29%
- % Reduction in Estrogenic Activity, Liquid Portion (n = 3) ([6]; Table 28 (aerobically digested biosolids, inferred b252), 50 ppm Ferrate): 84%
- % Reduction in Estrogenic Activity, Liquid Portion (n = 3) [6, 7]: 85%
- % Reduction in Estrogenic Activity, Liquid Portion (n = 3) [6, 8]: 90%
- % Reduction in Estrogenic Activity, Liquid Portion (n = 3) ([6]; Table 28, 100 ppm Ferrate): 88%
- % Reduction in Estrogenic Activity, Liquid Portion (n = 3) [6, 9]: 81%
- % Reduction in Estrogenic Activity, Liquid Portion (n = 3) ([6]; Table 28, 200 ppm Ferrate): 89%
- % Reduction in Estrogenic Activity, Liquid Portion (n = 3) ([6]; Table 29 (anaerobically digested biosolids, inferred b252), 50 ppm Ferrate): 68%
- % Reduction in Estrogenic Activity, Liquid Portion (n = 3) [6, 10]: 71%
- % Reduction in Estrogenic Activity, Liquid Portion (n = 3) [6, 11]: 74%
- % Reduction in Estrogenic Activity, Liquid Portion (n = 3) ([6]; Table 29, 100 ppm Ferrate): 73%
- % Reduction in Estrogenic Activity, Liquid Portion (n = 3) [6, 12]: 71%
- % Reduction in Estrogenic Activity, Liquid Portion (n = 3) ([6]; Table 29, 200 ppm Ferrate): 72%
- inactivation (in words) (Poliovirus Type 1): complete elimination
